Consider four molecules from ChEMBL document CHEMBL1201862, “PubChem BioAssay data set” (2004).

Active and inactive are the calls of the source. Some results are limits rather than exact numbers.

What all share (format): functional
Experiment [1] deals with T1, cAMP-dependent protein kinase catalytic subunit PRKX (Homo sapiens, UniProt P51817).
T1 sequence (P51817 whole entry): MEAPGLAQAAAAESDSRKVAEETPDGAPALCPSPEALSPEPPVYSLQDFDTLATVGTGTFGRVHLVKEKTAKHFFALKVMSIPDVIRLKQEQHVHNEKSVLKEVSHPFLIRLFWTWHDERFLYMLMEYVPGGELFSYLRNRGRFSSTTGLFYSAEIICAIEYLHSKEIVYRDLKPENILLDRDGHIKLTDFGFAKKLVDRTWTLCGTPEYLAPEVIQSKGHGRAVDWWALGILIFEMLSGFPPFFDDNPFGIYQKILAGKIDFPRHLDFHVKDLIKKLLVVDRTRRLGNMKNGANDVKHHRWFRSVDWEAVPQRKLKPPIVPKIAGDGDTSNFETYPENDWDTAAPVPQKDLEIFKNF

In experiment [2] the target is T2, Aurora kinase A (Homo sapiens, UniProt O14965).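 Note: value from the Navigating the Kinome kinase panel profiling, panel entry STK6.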
T2 sequence (O14965 whole entry): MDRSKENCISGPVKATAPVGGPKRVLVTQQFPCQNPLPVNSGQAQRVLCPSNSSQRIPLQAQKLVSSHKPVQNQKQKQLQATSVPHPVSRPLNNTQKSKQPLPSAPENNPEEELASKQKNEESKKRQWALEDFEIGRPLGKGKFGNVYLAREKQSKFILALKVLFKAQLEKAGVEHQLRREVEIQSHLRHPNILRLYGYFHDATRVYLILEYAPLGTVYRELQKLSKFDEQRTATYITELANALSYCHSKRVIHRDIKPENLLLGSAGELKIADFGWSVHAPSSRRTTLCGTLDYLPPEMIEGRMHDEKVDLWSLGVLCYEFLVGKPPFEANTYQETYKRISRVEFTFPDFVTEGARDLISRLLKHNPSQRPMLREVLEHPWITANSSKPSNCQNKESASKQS

Experiment [3] addresses T3, Receptor-type tyrosine-protein kinase FLT3 (Homo sapiens, UniProt P36888).
T3 sequence (P36888 whole entry): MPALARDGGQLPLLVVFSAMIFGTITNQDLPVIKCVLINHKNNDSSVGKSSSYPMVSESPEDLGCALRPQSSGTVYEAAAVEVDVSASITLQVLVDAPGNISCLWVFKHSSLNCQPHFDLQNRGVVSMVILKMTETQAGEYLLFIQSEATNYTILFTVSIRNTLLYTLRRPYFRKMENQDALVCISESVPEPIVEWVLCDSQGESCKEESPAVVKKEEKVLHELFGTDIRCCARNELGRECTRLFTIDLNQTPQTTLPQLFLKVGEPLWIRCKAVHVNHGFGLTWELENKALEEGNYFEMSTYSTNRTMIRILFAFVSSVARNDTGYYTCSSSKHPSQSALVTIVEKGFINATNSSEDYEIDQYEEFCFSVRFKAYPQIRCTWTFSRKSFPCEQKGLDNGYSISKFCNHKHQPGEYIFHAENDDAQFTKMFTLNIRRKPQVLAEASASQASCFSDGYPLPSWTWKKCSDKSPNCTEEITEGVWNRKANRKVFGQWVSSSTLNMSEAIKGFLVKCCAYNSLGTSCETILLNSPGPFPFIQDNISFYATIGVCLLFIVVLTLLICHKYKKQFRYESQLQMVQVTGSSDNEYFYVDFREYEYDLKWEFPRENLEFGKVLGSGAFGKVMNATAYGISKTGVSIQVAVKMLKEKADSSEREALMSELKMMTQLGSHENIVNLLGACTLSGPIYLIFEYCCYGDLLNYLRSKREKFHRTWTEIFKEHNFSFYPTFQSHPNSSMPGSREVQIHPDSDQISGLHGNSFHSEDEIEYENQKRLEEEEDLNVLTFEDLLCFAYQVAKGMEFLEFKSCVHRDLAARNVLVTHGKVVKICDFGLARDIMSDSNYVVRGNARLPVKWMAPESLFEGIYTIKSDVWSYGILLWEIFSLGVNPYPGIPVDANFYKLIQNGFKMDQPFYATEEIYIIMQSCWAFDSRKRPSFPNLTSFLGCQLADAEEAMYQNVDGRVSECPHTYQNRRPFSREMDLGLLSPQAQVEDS

Experiment [4] concerns the target cAMP-dependent protein kinase catalytic subunit alpha (Homo sapiens, UniProt P17612).
Experiment [5] deals with T4, Serine/threonine-protein kinase D3 (Homo sapiens, UniProt O94806).
T4 sequence (O94806 whole entry): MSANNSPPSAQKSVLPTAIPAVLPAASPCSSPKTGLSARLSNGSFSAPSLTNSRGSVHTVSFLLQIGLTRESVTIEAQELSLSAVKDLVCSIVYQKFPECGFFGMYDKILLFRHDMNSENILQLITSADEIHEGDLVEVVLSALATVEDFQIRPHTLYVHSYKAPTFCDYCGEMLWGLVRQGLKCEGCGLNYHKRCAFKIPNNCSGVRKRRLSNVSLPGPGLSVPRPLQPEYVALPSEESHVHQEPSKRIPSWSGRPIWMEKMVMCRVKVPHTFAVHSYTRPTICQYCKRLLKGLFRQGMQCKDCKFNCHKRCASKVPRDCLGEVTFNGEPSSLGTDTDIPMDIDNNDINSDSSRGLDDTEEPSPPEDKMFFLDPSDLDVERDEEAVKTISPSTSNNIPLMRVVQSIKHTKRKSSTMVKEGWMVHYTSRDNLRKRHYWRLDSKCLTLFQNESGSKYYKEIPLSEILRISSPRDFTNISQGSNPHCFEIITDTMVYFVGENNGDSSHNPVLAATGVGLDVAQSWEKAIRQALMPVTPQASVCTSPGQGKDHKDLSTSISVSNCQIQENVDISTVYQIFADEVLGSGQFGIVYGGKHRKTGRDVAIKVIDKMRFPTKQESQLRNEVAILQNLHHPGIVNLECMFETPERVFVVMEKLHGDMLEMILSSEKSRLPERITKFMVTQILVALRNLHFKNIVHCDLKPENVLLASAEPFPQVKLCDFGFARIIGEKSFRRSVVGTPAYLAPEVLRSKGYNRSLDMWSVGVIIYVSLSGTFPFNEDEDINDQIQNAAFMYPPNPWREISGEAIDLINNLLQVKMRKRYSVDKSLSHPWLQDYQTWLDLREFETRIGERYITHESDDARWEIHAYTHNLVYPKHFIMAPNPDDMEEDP

In experiment [6] the target is Mitogen-activated protein kinase 8 (Homo sapiens, UniProt P45983).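 Note: value comes from one member of a kinome-wide kinase profiling panel.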
For experiment [7], the target named is High affinity nerve growth factor receptor (Homo sapiens, UniProt P04629).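 Note: NTRK1 tested as one member of a kinome-wide profiling panel.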
The target in experiment [8] is Tyrosine-protein kinase Lck (Homo sapiens, UniProt P06239).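 Note: lck was assayed as one member of a kinase panel.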
Experiment [9] concerns the target Glycogen synthase kinase-3 alpha (Homo sapiens, UniProt P49840).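 Note: GSK3A result taken from a broad kinome-wide kinase panel.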
The target in experiment [10] is Tyrosine-protein kinase ABL1 (Homo sapiens, UniProt P00519).
Chain of Tyrosine-protein kinase ABL1 (P00519 whole entry): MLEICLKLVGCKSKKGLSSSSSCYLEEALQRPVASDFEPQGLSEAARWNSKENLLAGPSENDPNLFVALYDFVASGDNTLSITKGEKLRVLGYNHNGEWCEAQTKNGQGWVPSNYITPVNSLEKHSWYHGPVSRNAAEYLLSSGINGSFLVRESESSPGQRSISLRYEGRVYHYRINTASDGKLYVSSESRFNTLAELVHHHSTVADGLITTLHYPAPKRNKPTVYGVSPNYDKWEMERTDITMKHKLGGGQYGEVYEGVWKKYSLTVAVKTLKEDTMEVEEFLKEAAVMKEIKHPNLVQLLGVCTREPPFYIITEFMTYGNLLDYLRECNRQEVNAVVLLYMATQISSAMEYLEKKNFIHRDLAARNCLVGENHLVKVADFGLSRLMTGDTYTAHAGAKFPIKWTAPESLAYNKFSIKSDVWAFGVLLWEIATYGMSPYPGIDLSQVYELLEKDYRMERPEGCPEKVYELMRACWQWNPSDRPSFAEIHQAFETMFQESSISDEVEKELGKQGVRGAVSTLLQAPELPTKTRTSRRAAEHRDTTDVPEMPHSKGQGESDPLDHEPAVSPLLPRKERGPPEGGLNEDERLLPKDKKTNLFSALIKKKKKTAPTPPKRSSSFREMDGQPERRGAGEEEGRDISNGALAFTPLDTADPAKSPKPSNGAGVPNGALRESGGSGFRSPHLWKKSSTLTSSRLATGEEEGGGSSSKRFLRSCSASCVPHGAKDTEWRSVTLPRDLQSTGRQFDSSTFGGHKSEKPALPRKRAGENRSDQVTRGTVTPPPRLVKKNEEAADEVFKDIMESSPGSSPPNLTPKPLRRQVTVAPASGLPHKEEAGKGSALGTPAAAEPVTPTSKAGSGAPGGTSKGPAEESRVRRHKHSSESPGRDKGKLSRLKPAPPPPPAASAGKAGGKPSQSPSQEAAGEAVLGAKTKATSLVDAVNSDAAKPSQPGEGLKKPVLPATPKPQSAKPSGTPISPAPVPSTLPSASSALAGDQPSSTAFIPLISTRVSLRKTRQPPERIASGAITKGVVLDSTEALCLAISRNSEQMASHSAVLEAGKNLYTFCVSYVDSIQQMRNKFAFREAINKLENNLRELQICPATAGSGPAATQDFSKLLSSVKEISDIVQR

Chain of Mitogen-activated protein kinase 8 (P45983 whole entry): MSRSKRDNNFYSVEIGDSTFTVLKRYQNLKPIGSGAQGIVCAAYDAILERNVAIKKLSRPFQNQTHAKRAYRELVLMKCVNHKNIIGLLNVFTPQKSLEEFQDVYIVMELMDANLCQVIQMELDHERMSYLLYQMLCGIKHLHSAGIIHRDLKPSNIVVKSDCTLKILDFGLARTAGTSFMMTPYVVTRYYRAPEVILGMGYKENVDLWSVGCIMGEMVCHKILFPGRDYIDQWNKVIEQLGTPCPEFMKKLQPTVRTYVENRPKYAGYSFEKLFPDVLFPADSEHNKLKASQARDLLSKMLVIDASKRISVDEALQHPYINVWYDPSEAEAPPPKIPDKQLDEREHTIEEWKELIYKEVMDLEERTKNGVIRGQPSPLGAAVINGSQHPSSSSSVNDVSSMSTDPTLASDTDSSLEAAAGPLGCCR
Chain of Glycogen synthase kinase-3 alpha (P49840 whole entry): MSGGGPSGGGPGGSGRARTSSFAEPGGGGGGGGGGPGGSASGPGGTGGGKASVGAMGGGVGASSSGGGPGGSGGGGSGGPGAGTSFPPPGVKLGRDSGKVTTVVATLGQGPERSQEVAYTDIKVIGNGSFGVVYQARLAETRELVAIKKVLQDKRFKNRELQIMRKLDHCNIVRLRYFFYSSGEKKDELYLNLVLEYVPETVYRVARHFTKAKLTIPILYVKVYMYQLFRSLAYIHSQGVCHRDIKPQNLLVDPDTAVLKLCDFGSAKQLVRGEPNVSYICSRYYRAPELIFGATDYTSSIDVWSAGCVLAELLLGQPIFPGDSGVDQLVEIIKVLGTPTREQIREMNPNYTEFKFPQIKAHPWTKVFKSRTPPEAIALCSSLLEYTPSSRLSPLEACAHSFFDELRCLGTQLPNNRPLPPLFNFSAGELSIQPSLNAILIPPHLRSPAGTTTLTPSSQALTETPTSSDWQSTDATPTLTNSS
Chain of High affinity nerve growth factor receptor (P04629 whole entry): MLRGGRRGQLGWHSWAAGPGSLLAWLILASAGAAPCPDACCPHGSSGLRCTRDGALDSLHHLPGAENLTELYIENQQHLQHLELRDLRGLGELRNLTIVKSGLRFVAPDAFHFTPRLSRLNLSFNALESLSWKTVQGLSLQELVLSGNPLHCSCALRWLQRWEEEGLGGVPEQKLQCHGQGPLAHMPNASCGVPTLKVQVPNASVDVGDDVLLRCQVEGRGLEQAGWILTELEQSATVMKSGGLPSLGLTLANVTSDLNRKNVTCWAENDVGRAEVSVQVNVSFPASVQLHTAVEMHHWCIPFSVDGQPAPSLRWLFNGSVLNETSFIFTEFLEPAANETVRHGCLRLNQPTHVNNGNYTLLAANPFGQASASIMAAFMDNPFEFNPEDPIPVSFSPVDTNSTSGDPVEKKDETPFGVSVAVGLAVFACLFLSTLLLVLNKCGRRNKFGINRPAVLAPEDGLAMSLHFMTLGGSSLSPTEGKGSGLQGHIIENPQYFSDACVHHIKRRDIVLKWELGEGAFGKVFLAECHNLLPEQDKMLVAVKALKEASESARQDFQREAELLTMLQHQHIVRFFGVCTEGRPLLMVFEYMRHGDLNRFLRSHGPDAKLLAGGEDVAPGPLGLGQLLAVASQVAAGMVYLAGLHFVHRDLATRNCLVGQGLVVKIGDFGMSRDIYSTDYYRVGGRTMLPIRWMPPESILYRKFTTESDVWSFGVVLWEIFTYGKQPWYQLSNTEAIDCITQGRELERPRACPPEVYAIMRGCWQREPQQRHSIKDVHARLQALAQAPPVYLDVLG
Chain of Tyrosine-protein kinase Lck (P06239 whole entry): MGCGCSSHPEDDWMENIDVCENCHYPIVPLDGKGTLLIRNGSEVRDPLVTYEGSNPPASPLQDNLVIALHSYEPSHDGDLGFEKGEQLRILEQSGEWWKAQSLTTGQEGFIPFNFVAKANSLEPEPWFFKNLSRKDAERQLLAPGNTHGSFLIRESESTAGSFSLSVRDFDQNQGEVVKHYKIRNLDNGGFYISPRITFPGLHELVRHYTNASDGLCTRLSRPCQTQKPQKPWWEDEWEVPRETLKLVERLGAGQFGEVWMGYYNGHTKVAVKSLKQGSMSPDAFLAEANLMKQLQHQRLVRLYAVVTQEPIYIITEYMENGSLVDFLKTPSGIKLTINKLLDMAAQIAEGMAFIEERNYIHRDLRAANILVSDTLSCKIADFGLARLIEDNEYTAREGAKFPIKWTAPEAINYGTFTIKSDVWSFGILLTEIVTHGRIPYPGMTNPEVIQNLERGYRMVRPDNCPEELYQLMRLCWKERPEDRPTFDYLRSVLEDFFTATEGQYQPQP

As usually defined, the Ki is the equilibrium dissociation constant of an inhibitor or competing ligand from its target. For the molecule `CCC1CC(NS(=O)(=O)C2CC2)CC1c1ncc2cnc3[nH]ccc3n12` (centres undefined), the Ki in [1] is > 1.26 µM (inactive); in experiment [2] it was 1.26 µM (active); in [3], > 3.16 µM (inactive); in experiment [4], 0.2 µM (active); in [5], > 3.98 µM (inactive); in experiment [6], > 5.01 µM (inactive). The Ki was > 3.16 µM (inactive) in [7], 3.98 µM (active) in [8] and > 3.98 µM (inactive) in experiment [9].

For the molecule `O=C(Nc1cccc(C(F)(F)F)n1)Nc1ccnc2cc(OC(F)F)ccc12`, the Ki in experiment [1] is > 3.16 µM (inactive); in [2], > 1.58 µM (inactive); in experiment [3], > 3.16 µM (inactive); in [5] it was > 3.98 µM (inactive); in [10], > 3.16 µM (inactive); in [6] it was > 5.01 µM (inactive). Further, the Ki in experiment [7] is > 3.16 µM (inactive); in experiment [8], > 6.31 µM (inactive); in [9] it was 0.0158 µM (active).

Turning to `O=c1[nH]c2cc(Br)cnc2[nH]1`, the Ki in experiment [1] is 12.6 µM (active); in [2], 10 µM (active); in [4] it was > 50.1 µM (inactive); in experiment [5], 20 µM (active); in experiment [10], 15.8 µM (active); in [9] it was 63.1 µM (active).

As to `O=C(Nc1cccc(C(F)(F)F)n1)Nc1ccnc2cc(Cl)ccc12`, the Ki in experiment [1] is > 3.16 µM (inactive); in experiment [2], > 1.58 µM (inactive); in [3], > 3.16 µM (inactive); in [4], > 1.26 µM (inactive); in experiment [5], > 3.98 µM (inactive); in [10], 3.98 µM (active). Besides, the Ki was > 5.01 µM (inactive) in experiment [6], 2.51 µM (active) in [7], > 6.31 µM (inactive) in [8] and 0.0158 µM (active) in [9].
